Type in all cases: cell-based
Assay [1] deals with A2780 ovarian cancer cell line. The assay can be described thus: Cell survival and adhesion assay (luciferase), A2780. The following applies: 5 hours, A2780 cells overlayed onto human mesothelial cell monolayers, read-out: relative reduction in Luciferase activity, A2780 10 μM. The procedure:
(§1) SU86 is a pancreatic cancer cell line. HT29 is a colon cancer cell line. BxPC3 is a pancreatic cell line. A2780 is an ovarian cancer cell line.
(§2) BxPc-3 and Su.86.86 pancreatic and HT-29 colon and A2780 ovarian cancer cell lines were purchased from ATCC and cultured in DMEM supplemented with 10% fetal bovine serum, glutamine, penicillin, and streptomycin. All cells were cultured at 37° C. in a humidified incubator in a 5% CO2 atmosphere. The cancer cell lines were transduced with a retrovirus containing pLuc-puro, a constitutive luciferase reporter and selected in […] media. Transient transfection of a full-length human c-FLIP construct in the vector pcDNA3 was performed as previously described. Scaife et al. Cancer Research 2002, 62: 6870-78.
(§3) Pancreatic cancer cell cultures (BxPc-3 and Su.86.86) and colon cancer (HT-29) and ovarian cancer (A2780) cells that were stably transfected with a firefly luciferase construct were transiently suspended with trypsin-PBS. 10^5 cells were overlayed onto confluent monolayers of human mesothelial cells in 96-well plates while simultaneously adding various concentrations of compounds of the invention or DMSO for 5 hours. The non-adherent cells were carefully washed away from the wells twice with 100 μl/well of blocking buffer (1% BSA in PBS) and twice again with ice-cold PBS. Adherent and surviving cells were detected by luciferase activity in a luminometer as follows. The cells were lysed in 0.1% TritonX-100, 25 mM Gly-Gly (7.8), MgSO4, 4 mM EGTA, 1 mM DTT. The total protein concentration was normalized with lysis buffer. 50 μl of cell lysate was added per well of a 96-well microtiter plate. 50 μl of luciferin substrate (Promega) was added per well and then the light output determined in a luminometer.

In assay [2] the test system is BxPC3 pancreatic cell line. Kind of assay: Cell survival and adhesion assay (luciferase), BxPC3. The following applies: BXPC-3, 5 hours, BxPC3 cells overlayed onto human mesothelial cell monolayers, read-out: relative reduction in Luciferase activity, BxPC3 10 μM. The procedure: as §1, §2, §3
Assay [3] relates to SU86 pancreatic cancer cell line (Su.86.86). The assay can be described thus: Cell survival and adhesion assay (luciferase), SU86. The following applies: 5 hours, SU86 cells overlayed onto human mesothelial cell monolayers, read-out: relative reduction in Luciferase activity, SU86 10 μM. The protocol: as §1, §2, §3

Drawing on patent US9475766B2, “Substituted aromatic sulfur compounds and methods of their use” (Cephalon, Inc., priority 2011, dated 2016), this text covers inhibition for 23 molecules.

Regarding `Cc1ccc2oc(COc3ccc(S(=O)(=O)/C=C/C#N)cc3C(C)(C)C)nc2c1` [Example 81, (E)-3-[3-tert-Butyl-4-(5-methyl-benzoxazol-2-ylmethoxy)-benzenesulfonyl]-acrylonitrile], the inhibition at 10 µM was over 85% in assay [1] and 50 to 85% in assay [2]. On to `N#C/C=C/S(=O)(=O)c1ccc(C2(C(=O)NC3CCCCC3)CC2)cc1` [Example 68, 1-[4-((E)-2-Cyano-ethenesulfonyl)-phenyl]-cyclopropanecarboxylic acid cyclohexylamide], for which the results for the inhibition at 10 µM in assay [1] and in assay [2] were over 85% and 50 to 85%, respectively. `C#CCNC(=O)C(C)(C)c1ccc(S(=O)(=O)/C=C/C#N)cc1` [Example 19, 2-[4-((E)-2-Cyano-ethenesulfonyl)-phenyl]-N-prop-2-ynyl-isobutyramide]: the inhibition at 10 µM in assay [3], in assay [1] and in assay [2] was 10 to 50% each time.

For `CC(C)(C(=O)NCc1ccc(F)cc1)c1cccc(S(=O)(=O)/C=C/C#N)c1` [Example 37, 2-[3-((E)-2-Cyano-ethenesulfonyl)-phenyl]-N-(4-fluoro-benzyl)-isobutyramide], the inhibition at 10 µM in assay [2] lay in the range of 50 to 85%. Consider `CC(C)(C(=O)NCc1ccc(F)cc1)c1ccc(S(=O)(=O)/C=C/C#N)cc1` [Example 18, 2-[4-((E)-2-Cyano-ethenesulfonyl)-phenyl]-N-(4-fluoro-benzyl)-isobutyramide], for which the inhibition at 10 µM in assay [3] is 50 to 85%; in assay [1], over 85%; in assay [2] it was 50 to 85%. For the molecule `N#C/C=C/S(=O)(=O)c1ccc(C2(C(=O)NCc3ccc(Cl)cc3)CCC2)cc1` [Example 76, 1-[4-((E)-2-Cyano-ethenesulfonyl)-phenyl]-cyclobutanecarboxylic acid 4-chloro-benzylamide], the inhibition at 10 µM is over 85% in assay [1] and 50 to 85% in assay [2]. With `C[C@@H](NC(=O)C(C)(C)c1ccc(S(=O)(=O)/C=C/C#N)cc1)c1ccccc1` [Example 17, 2-[4-((E)-2-Cyano-ethenesulfonyl)-phenyl]-N—((R)-1-phenyl-ethyl)-isobutyramide], the inhibition at 10 µM was 50 to 85% in assay [3], over 85% in assay [1] and 50 to 85% in assay [2]. Take `N#C/C=C/S(=O)(=O)c1ccc(C2(C(=O)NC3CCCCC3)CCOCC2)cc1` [Example 83, 4-[4-((E)-2-Cyano-ethenesulfonyl)-phenyl]-tetrahydro-pyran-4-carboxylic acid cyclohexylamide]: the figures for the inhibition at 10 µM in assay [1] and in assay [2] were under 10% and 10 to 50%, respectively.

With `COc1cccc(NC(=O)C(C)(C)c2cccc(S(=O)(=O)/C=C/C#N)c2)c1` [Example 36, 2-[3-((E)-2-Cyano-ethenesulfonyl)-phenyl]-N-(3-methoxy-phenyl)-isobutyramide], the inhibition at 10 µM in assay [2] lay within 50 to 85%. For `CC(C)(C(=O)NCc1ccc(-n2cccn2)cc1)c1ccc(S(=O)(=O)/C=C/C#N)cc1` [Example 21, 2-[4-((E)-2-Cyano-ethenesulfonyl)-phenyl]-N-(4-pyrazol-1-yl-benzyl)-isobutyramide], the inhibition at 10 µM in assay [3], in assay [1] and in assay [2] was 50 to 85% each time. `C[C@H](NC(=O)C(C)(C)c1ccc(S(=O)(=O)/C=C/C#N)cc1)c1ccccc1` [Example 16, 2-[4-((E)-2-Cyano-ethenesulfonyl)-phenyl]-N—((S)-1-phenyl-ethyl)-isobutyramide]: the inhibition at 10 µM in assay [3] is 50 to 85%; in assay [1] it was over 85%; in assay [2] it was 50 to 85%. With `N#C/C=C/S(=O)(=O)c1ccc(C2(C(=O)NCc3ccc(Cl)cc3)CCOCC2)cc1` [Example 85, 4-[4-((E)-2-Cyano-ethenesulfonyl)-phenyl]-tetrahydro-pyran-4-carboxylic acid 4-chloro-benzylamide], the inhibition at 10 µM in assay [1] and in assay [2] was 50 to 85% throughout.

As for `N#C/C=C/S(=O)(=O)c1ccc(C2(C(=O)Nc3ccccc3)CCC2)cc1` [Example 75, 1-[4-((E)-2-Cyano-ethenesulfonyl)-phenyl]-cyclobutanecarboxylic acid phenylamide], the inhibition at 10 µM was 50 to 85% in assay [1] and over 85% in assay [2]. Take `CC(C)(C(=O)NCc1ccc(N)cc1)c1ccc(S(=O)(=O)/C=C/C#N)cc1` [Example 38, N-(4-Amino-benzyl)-2-[4-((E)-2-cyano-ethenesulfonyl)-phenyl]-isobutyramide]: the inhibition at 10 µM in assay [2] fell in the range of 10 to 50%. For the molecule `Cc1ccc(O)c(NC(=O)COc2ccc(S(=O)(=O)/C=C/C#N)cc2C(C)(C)C)c1` [Example 79, 2-[2-tert-Butyl-4-((E)-2-cyano-ethenesulfonyl)-phenoxy]-N-(2-hydroxy-5-methyl-phenyl)-acetamide], the inhibition at 10 µM in assay [1] and in assay [2] was over 85% throughout.

For the molecule `N#C/C=C/S(=O)(=O)c1ccc(C2(C(=O)O)CCOCC2)cc1` [Example 82, 4-[4-((E)-2-Cyano-ethenesulfonyl)-phenyl]-tetrahydro-pyran-4-carboxylic acid], the inhibition at 10 µM in assay [1] and in assay [2] was under 10% in each case.

For the molecule `N#C/C=C/S(=O)(=O)c1ccc(C2(C(=O)NC3CCCCC3)CCC2)cc1` [Example 77, 1-[4-((E)-2-Cyano-ethenesulfonyl)-phenyl]-cyclobutanecarboxylic acid cyclohexylamide], the inhibition at 10 µM in assay [1] is over 85%; in assay [2], 50 to 85%. With `CC(C)(C(=O)NCc1cccc(F)c1)c1ccc(S(=O)(=O)/C=C/C#N)cc1` [Example 39, 2-[4-((E)-2-Cyano-ethenesulfonyl)-phenyl]-N-(3-fluoro-benzyl)-isobutyramide], the inhibition at 10 µM in assay [2] was in the range of 10 to 50%. Consider `N#C/C=C/S(=O)(=O)c1ccc(C2(C(=O)O)CCC2)cc1` [Example 74, 1-[4-((E)-2-Cyano-ethenesulfonyl)-phenyl]-cyclobutanecarboxylic acid], for which the inhibition at 10 µM in assay [1] and in assay [2] was under 10% in each case.

For the molecule `CC(C)(C)OC(=O)NCCOCCOCCNC(=O)C(C)(C)c1ccc(S(=O)(=O)/C=C/C#N)cc1` [Example 34, {2-[2-(2-{2-[4-((E)-2-Cyano-ethenesulfonyl)-phenyl]-2-methyl-propionylamino}-ethoxy)-ethoxy]-ethyl}-carbamic acid tert-butyl ester], in assay [2], the inhibition at 10 µM is under 10%. Turning to `N#C/C=C/S(=O)(=O)c1ccc(C2(C(=O)Nc3ccccc3)CCOCC2)cc1` [Example 84, 4-[4-((E)-2-Cyano-ethenesulfonyl)-phenyl]-tetrahydro-pyran-4-carboxylic acid phenylamide], the inhibition at 10 µM in assay [1] and in assay [2] was 10 to 50% each time. With `N#C/C=C/S(=O)(=O)c1ccc(C2(C(=O)NCc3ccc(F)cc3)CC2)cc1` [Example 67, 1-[4-((E)-2-Cyano-ethenesulfonyl)-phenyl]-cyclopropanecarboxylic acid 4-fluoro-benzylamide], the inhibition at 10 µM in assay [1] was over 85%; in assay [2] it was 50 to 85%. `CC(C)(C(=O)NC1CCCCC1)c1cccc(S(=O)(=O)/C=C/C#N)c1` [Example 35, 2-[3-((E)-2-Cyano-ethenesulfonyl)-phenyl]-N-cyclohexyl-isobutyramide]: in assay [2], the inhibition at 10 µM lay within 50 to 85%.
